Results: patent publication US5008416A, “Organogermanium compound, process for the preparation of same as well as use thereof” (Sanwa Kagaku Kenkyusho Co., Ltd., priority 1989, dated 1991)
Read-outs that look alike come from different tables or passages of the source.

What was measured:
[1] = system: normal mice; test: Influence on delayed type hypersensitivity in normal mice (Pharmacological Experiment 4); assay type: in vivo, mouse (ICR male); conditions: for Food pad swelling: 24 hours, mean ± standard error, n = 10
Experimental: Influence of the organogermanium compound on the DTH response of normal mice is investigated.
Normal ICR male mice (age of 8 weeks) were immunized with 10^6 cells of SRBC by intravenous route. On 4 days after immunization, the organogermanium compound (Example 4) dissolved in 4% bovine serum albumin was orally administered at the dose of 0.1, 1.0 and 10.0 mg/kg. Just after the treatment with the compound, mice were challenged to intracutaneus injection of 2×10^8 cells of SRBC to hind food pad.
After 24 hours from the injection, the swelling of the foot pad was observed by a stereoscopic microscope.

[2] = system: tumor bearing mice; test: Influence on antibody production in tumor bearing mice (Pharmacological Experiment 1); assay type: in vivo, mouse (ICR male); conditions: for Number of PFC: 5 days, mean ± standard error, n = 7
Experimental: Influence of the organogermanium compound on antibody production ability is checked with use of tumor bearing mice, as experimental animals reduced in their immunity response.
Tumor bearing mice were prepared by implanting 2×10^6 cells of mouse tumor cell (Sarcoma 180) under a skin of each ICR male mouse (age of 6 weeks) to form a solid tumor.
The organogermanium compound (Production Example 4) dissolved in 4% bovine serum albumin solution was orally administered to the tumor bearing mice over 5 days after lapsed 9 days from the implantation of the tumor cells, by a dose of 0.1, 1.0 or 10.0 mg/kg/day.
After lapsed 14 days from the implantation, 2×10^8 cells of sheep red blood cells (SRBC) were injected in a tail vein of the mice for sensitization. After 4 days from the sensitization, spleen was removed and number of PFC in 10^6 spleen cells was measured, as an index of the antibody production in the tumor bearing mice.

[3] = system: Vaccinia virus (DI strain); assay type: in vivo, mouse (ddy male); conditions: for Inhibition (pocks) / Number of pocks: 7th day; for Number of pocks: mean ± standard error, n = 10, (***) p < 0.001 vs Control
[4] = system: Sarcoma 180 tumor cells; test: Anti-tumor effect, Sarcoma 180 (Pharmacological Experiment 7); assay type: in vivo, mouse (ICR male); conditions: for Inhibition (development of solid tumor) / Tumor weight: 10 days, 20th day; for Tumor weight: mean ± standard error, n = 10
Experimental: An anti-tumor effect of the organogermanium compound according to the invention is examined to Sarcoma 180 tumor cells.
Sarcoma 180 tumor cells were subcutaneously implanted with 2×10^6cells to male ICR mice (n=10) as experimental animals to form a solid tumor. The organogermanium compound (Example 4) dissolved in 4% bovine serum albumin was orally administered at the dose of 0.1, 1.0 and 10.0 mg/kg once a day for 10 days on the day after the implantation.
On the 20th day from the implantation, formed solid tumor was removed and weighed. An antitumor effect represented the inhibitory percent of the compound on the development of solid tumor.

[5] = 0.1 mg/kg (as printed in Table 8) orally

Substance: Sodium 2-oxygermylethanesulfonate polymer [Example 4]
- Food pad swelling ([1]; 0.1 mg/kg orally, (**) p < 0.01 vs Control): 70.9 ± 9.1 x 0.01 mm
- Food pad swelling ([1]; 1.0 mg/kg orally, (***) p < 0.001 vs Control): 59.0 ± 6.6 x 0.01 mm
- Food pad swelling ([1]; 10.0 mg/kg orally, (*) p < 0.05 vs Control): 86.9 ± 10.2 x 0.01 mm
- DTH response of normal mice (result in words) ([1]; 0.1, 1.0 and 10.0 mg/kg orally): significantly reduced the DTH response of normal mice
- Number of PFC ([2]; 0.1 mg/kg/day orally, (*) p < 0.05 vs tumor bearing): 745 ± 66 PFC in 10^6 spleen cells
- Number of PFC ([2]; 1.0 mg/kg/day orally): 948 ± 195 PFC in 10^6 spleen cells
- Number of PFC ([2]; 10.0 mg/kg/day orally, (***) p < 0.001 vs tumor bearing): 1071 ± 89 PFC in 10^6 spleen cells
- Antibody production (result in words) ([2]; 0.1-10.0 mg/kg/day orally, depending on dosing amount): the reduced antibody production due to generation of the tumor increased to a normal level
- Inhibition (pocks) [3, 5]: 41.0%
- Number of pocks [3, 5]: 23 ± 2
- Inhibition (pocks) ([3]; 10.0 mg/kg orally): 43.5%
- Number of pocks ([3]; 10.0 mg/kg orally): 22 ± 4
- Host defense against Vaccinia virus (result in words) ([3]; orally): has host defense function against Vaccinia virus infected mice
- Inhibition (development of solid tumor) ([4]; 0.1 mg/kg orally once a day): 28%
- Tumor weight ([4]; 0.1 mg/kg orally once a day): 1.87 ± 0.46 g
- Inhibition (development of solid tumor) ([4]; 1.0 mg/kg orally once a day): 69%
- Tumor weight ([4]; 1.0 mg/kg orally once a day, (*) p < 0.05 vs Control): 0.82 ± 0.22 g
- Inhibition (development of solid tumor) ([4]; 10.0 mg/kg orally once a day): 38%
- Tumor weight ([4]; 10.0 mg/kg orally once a day): 1.61 ± 0.29 g
- Growth of Sarcoma 180 solid tumor (result in words) ([4]; 0.1, 1.0 and 10.0 mg/kg orally): reduced the growth of Sarcoma 180 solid tumor cells
